Test results: US20070117770A1, “Human ribosomal DNA (rDNA) and ribosomal RNA (rRNA) nucleic acids and uses thereof” (Cylene Pharmaceuticals, Inc., priority 2005, published 2007)

Key:
[1] = system: c-myc mRNA in HCT116 cells; assay: RNA Polymerase II-dependent RNA synthesis (c-myc mRNA, Taqman qRT-PCR); assay type: cell-based; conditions: at the tested concentrations
Protocol: Effects of compound A-1 and compound B-1 on DNA synthesis, RNA synthesis and protein synthesis were determined in HCT116 cells. HCT116 cells were plated overnight at 100,000 cells per mL. Next day cells were treated with increasing amounts of either compound A-1 or compound B-1 followed by one hour incubation with BrdU label (from a BrdU Cell proliferation Assay Kit, Calbiochem) to monitor DNA synthesis; […] of ^3H-uridine to monitor total RNA synthesis; […] of ^3H-methionine to monitor protein synthesis or plain media to monitor RNA Polymerase II-dependent RNA synthesis. DNA synthesis was assessed using a BrdU-ELISA (BrdU Cell proliferation Assay Kit, Calbiochem). To measure total RNA synthesis, total RNA from treated cells was isolated with a RNease kit (QIAGEN), levels of total RNA were assessed with Ribogreen reagent (Invitrogen) and the newly synthesized tritiated RNA was measured in a scintillation Counter (Perkin Elmer). To measure effects on protein synthesis, cells were lysed in a RIPA buffer, and total protein was precipitated with 10% TCA on a glass-filters. Newly synthesized tritiated protein was measured in a scintillation Counter (Perkin Elmer). Effects of drugs on […] RNA synthesis were assessed by monitoring levels of a c-myc mRNA, which has a relatively short half-life of approximately 30 minutes, by Taqman qRT-PCR (ABI).

[2] = biological target: JAK3(h) (Homo sapiens, UniProt P52333); assay: Protein kinase inhibition assay; assay type: biochemical; conditions: read-out: percent residual activity of JAK3(h)
Protocol: (§1) Certain compounds were tested for activity in protein kinase inhibition assays. All substrates were dissolved and diluted to working stocks in de-ionized water, apart from histone H1 (10× working stock in 20 mM MOPS pH 7.0), PDKtide (10× working stock in 50 mM Tris pH 7.0) ATF2 (which is typically stored at a 20× working stock in 50 mM Tris pH 7.5, 150 mM NaCl, 0.1 mM EGTA, 0.03% Brij-35, 50% glycerol, 1 mM benzamidine, 0.2 mM PMSF and 0.1% R-mercaptoethanol), KKLNRTLSFAEPG (SEQ ID NO:203) and RRRLSFAEPG (SEQ ID NO:204) (50 mM HEPES pH 7.4) and GGEEEEYFELVKKKK (SEQ ID NO:205) (20 mM MOPS pH 7.0). All kinases were pre-diluted to a 10× working concentration prior to addition into the assay. The composition of the dilution buffer for each kinase is detailed below.
(§2) In a final reaction volume of 25 μl, JAK3 (h) (5-10 mU) is incubated with 8 mM MOPS pH 7.0, 0.2 mM EDTA, 500 μM GGEEEEYFELVKKKK (SEQ ID NO:218), 10 mM MgAcetate and [gamma-33P-ATP] (specific activity approx. 500 cpm/pmol, concentration as required). The reaction is initiated by the addition of the MgATP mix. After incubation for 40 minutes at room temperature, the reaction is stopped by the addition of 5 μl of a 3% phosphoric acid solution. 10 μl of the reaction is then spotted onto a P30 filtermat and washed three times for 5 minutes in 75 mM phosphoric acid and once in methanol prior to drying and scintillation counting.

[3] = biological target: Plk3(h) (Homo sapiens, UniProt Q9H4B4); assay: Protein kinase inhibition assay; assay type: biochemical; conditions: read-out: percent residual activity of Plk3(h)
Protocol: as §1
as §2, with “Plk3” for “JAK3”, “2 mg/ml casein,” for “500 μM GGEEEEYFELVKKKK (SEQ ID NO:218),”

[4] = biological target: JNK2α2(h) (Homo sapiens, UniProt P45984); assay: Protein kinase inhibition assay; assay type: biochemical; conditions: read-out: percent residual activity of JNK2α2(h)
Protocol: as §1
as §2, with “JNK2α2” for “JAK3”, “50” for “8”, “Tris” for “MOPS”, “7.5, […], 0.1% R-mercaptoethanol, 3” for “7.0, 0.2 mM EDTA, 500”, “ATF2,” for “GGEEEEYFELVKKKK (SEQ ID NO:218),”

[5] = biological target: Abl(m) (Mus musculus, UniProt P00520); assay: Protein kinase inhibition assay; assay type: biochemical; conditions: read-out: percent residual activity of Abl(m)
Protocol: as §1
as §2, with “μl, Abl (m)” for “μl, JAK3 (h)”, “EDTA, 50” for “EDTA, 500”, “μM EAIYAAPFAKKK” for “μM GGEEEEYFELVKKKK”, “ID NO:206),” for “ID NO:218),”

[6] = biological target: Hck(h) (Homo sapiens, UniProt P08631); assay: Protein kinase inhibition assay; assay type: biochemical; conditions: read-out: percent residual activity of Hck(h)
Protocol: as §1
In a final reaction volume of 25 μl, Hck (h) (5-10 mU) is incubated with 8 mM MOPS pH 7.0, 0.2 mM EDTA, 250 μM KVEKIGEGTYGVVYK (Cdc2 peptide) (SEQ ID NO:211), 10 mM MgAcetate and [gamma-33P-ATP] (specific activity approx. 500 cpm/pmol, concentration as required). The reaction is initiated by the addition of the MgATP mix. After incubation for 40 minutes at room temperature, the reaction is stopped by the addition of 5 μl of a 3% phosphoric acid solution. […]

Sequence of Hck(h) (P08631 whole entry): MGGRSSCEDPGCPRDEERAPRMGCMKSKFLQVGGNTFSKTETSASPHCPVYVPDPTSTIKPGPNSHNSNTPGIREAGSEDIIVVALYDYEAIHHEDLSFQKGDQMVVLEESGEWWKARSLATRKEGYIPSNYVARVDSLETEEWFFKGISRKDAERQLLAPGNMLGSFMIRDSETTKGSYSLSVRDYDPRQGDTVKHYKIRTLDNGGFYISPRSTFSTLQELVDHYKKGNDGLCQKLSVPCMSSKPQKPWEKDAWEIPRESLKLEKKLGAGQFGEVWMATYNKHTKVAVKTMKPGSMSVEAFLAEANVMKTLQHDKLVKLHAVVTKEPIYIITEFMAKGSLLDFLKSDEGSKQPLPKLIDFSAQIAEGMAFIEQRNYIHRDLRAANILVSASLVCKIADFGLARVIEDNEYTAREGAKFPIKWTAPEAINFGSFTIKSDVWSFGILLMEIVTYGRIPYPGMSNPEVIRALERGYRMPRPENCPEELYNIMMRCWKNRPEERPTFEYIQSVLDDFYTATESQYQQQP
Sequence of Abl(m) (P00520 whole entry): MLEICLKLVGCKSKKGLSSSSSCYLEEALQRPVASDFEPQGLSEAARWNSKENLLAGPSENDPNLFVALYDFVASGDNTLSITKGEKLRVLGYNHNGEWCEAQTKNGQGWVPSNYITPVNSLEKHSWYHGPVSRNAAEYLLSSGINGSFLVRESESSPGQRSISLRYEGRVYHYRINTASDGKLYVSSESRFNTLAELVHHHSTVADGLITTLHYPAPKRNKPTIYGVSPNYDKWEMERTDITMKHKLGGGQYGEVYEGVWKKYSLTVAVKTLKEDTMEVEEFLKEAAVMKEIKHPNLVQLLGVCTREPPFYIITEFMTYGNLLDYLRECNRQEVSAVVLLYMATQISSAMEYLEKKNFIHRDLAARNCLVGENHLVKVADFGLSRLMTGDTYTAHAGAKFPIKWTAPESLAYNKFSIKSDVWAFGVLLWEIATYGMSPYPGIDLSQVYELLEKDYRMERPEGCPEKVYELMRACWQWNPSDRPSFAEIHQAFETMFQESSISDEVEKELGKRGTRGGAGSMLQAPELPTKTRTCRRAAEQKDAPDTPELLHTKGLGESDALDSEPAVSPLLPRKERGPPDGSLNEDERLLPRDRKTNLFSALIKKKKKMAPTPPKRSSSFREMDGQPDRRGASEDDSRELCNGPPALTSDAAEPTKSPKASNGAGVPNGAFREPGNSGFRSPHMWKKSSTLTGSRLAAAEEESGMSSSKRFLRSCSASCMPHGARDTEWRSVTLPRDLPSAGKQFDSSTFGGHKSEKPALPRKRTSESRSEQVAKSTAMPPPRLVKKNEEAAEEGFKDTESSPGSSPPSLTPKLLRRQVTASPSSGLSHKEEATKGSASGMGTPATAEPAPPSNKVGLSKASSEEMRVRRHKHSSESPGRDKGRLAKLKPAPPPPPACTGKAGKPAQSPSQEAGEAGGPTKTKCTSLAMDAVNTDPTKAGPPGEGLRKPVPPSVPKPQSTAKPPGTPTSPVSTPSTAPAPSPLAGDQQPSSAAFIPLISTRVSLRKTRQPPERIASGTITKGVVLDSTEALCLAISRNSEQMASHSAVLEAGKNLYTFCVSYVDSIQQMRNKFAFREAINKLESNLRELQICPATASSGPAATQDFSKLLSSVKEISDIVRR
Sequence of JNK2α2(h) (P45984 whole entry): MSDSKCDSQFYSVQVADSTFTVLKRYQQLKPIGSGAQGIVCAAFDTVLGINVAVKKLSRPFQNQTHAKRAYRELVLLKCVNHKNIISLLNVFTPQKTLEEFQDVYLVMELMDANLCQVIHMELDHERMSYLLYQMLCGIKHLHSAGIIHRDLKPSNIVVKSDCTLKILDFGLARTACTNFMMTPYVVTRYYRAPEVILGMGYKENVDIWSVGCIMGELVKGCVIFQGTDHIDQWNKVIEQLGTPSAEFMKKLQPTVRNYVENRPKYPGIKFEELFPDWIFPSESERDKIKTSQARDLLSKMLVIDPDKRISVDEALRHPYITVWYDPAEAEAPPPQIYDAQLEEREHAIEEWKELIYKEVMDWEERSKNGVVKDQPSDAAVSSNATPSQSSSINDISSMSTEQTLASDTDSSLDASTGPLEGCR
Sequence of Plk3(h) (Q9H4B4 whole entry): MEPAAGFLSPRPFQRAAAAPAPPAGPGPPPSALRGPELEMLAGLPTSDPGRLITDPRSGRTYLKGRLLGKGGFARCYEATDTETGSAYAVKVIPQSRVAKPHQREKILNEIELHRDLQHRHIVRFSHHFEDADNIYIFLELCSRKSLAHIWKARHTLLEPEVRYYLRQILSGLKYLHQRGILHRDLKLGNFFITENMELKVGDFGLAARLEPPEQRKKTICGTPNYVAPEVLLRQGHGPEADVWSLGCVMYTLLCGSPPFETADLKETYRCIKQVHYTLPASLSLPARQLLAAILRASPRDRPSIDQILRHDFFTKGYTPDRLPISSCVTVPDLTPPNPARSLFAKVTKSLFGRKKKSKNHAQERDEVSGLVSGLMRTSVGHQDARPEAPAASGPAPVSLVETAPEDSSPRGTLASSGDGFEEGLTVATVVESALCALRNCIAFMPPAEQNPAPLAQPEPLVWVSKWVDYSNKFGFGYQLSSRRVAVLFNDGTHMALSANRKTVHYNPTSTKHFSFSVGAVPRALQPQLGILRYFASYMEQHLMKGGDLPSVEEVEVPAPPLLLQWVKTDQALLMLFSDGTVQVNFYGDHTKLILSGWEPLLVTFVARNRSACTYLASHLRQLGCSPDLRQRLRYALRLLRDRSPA
Sequence of JAK3(h) (P52333 whole entry): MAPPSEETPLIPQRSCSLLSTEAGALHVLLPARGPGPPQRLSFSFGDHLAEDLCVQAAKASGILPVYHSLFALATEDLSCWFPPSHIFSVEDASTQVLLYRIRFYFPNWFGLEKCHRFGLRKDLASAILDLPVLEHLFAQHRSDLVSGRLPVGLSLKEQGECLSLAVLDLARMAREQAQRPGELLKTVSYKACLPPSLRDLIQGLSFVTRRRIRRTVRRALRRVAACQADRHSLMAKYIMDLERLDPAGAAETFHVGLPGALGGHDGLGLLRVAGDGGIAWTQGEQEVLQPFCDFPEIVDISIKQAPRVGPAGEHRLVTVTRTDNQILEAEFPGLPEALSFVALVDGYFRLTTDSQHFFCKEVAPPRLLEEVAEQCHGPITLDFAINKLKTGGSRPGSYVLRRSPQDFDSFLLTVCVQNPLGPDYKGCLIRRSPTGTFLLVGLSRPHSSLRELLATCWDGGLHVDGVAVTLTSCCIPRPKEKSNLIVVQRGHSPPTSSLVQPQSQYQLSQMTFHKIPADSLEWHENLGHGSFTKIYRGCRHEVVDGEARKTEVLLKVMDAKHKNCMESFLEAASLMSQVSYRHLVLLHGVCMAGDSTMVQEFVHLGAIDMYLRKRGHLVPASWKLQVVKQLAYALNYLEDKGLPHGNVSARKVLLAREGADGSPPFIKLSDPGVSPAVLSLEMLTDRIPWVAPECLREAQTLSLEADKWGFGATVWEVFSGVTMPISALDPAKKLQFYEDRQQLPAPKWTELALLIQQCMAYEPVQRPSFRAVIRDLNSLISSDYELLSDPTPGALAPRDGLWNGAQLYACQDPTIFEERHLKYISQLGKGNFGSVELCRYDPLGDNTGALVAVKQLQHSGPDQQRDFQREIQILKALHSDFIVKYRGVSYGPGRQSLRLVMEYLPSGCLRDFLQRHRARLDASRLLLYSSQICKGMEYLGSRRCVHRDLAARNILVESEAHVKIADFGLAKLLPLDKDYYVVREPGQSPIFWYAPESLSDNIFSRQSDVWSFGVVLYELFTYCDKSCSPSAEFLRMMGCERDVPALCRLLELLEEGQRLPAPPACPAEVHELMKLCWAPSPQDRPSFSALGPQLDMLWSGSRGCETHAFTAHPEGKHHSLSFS

Row | remaining activity at 2.5 µM [2] | remaining activity at 2.5 µM [3] | remaining activity at 2.5 µM [4] | remaining activity at 2.5 µM [5] | remaining activity at 2.5 µM [6] | Compound | effect on c-myc mRNA levels [1]
1 | 112% | 92% | 101% | 9% | 84% | CN1CCCC1CCNC(=O)c1cn2c3c(c(N4CCC(c5cnccn5)C4)c(F)cc3c1=O)Oc1cc3ccccc3cc1-2 (stereo not drawn) [Compound A-1] | no measureable effect
2 | 109% | 86% | 106% | 104% | 89% | CC(=O)N1CCN(c2ccc3c(=O)c(C(=O)NCCN4CCCC4)c4n(C)c5ccccc5n4c3n2)CC1 [Compound B-1] | no measureable effect
